Source: publication PMC9281569, “Two HCN4 Channels Play Functional Roles in the Zebrafish Heart” (Frontiers in Physiology, 2022)

What was measured:
[1] = test system: developing zebrafish embryos; experiment: Antisense morpholino knockdown: heart rate of zebrafish embryos; format: in vivo, zebrafish (Danio rerio); settings: 200 μM MO into 1-cell embryos
Procedure: The heart rate of zebrafish embryos was measured under an Olympus MVX10 microscope at room temperature. After zebrafish embryos were acclimated to the new environment (room temperature, light), heart rate was counted by eye.
(§1) Morpholino antisense oligos (MO) were purchased from Gene Tools (Philomath, OR, United States) ([Fujii et al., 2020]). Zebrafish 1-cell embryos were injected with approximately 5 nL of MO solution at a concentration of 200 μM (approximately 10 ng/embryo).
Since DrHCN4 and DrHCN4L have similar sensitivities to the HCN inhibitors, individual gene knockdowns would be required for evaluating each channel’s role in heart rate regulation. Before knocking down each gene, we first confirmed that both HCN4 channels (DrHCN4 and DrHCN4L) were expressed in day 1, day 3, and day 7 embryos and in the heart and brain of adult fish (Figure 6A). We next investigated whether the knockdown of each gene affects heart rate in zebrafish. The expression of each gene was knocked down by using antisense morpholino (MO), which is commonly used in zebrafish ([Blum et al., 2015]; [Jou et al., 2017]; [Fujii et al., 2020]). MO solutions were injected into 1-cell embryos of zebrafish. […] Embryos were injected with control MO, DrHCN4 MO, and DrHCN4L MO at concentrations of 200 μM or with a mixture of DrHCN4 MO and DrHCN4L MO (200 μM for each). At 24 h after injection of MO, there was a slight decrease of heart rate in embryos injected with DrHCN4 MO (44 ± 2 bpm, p = 0.049) and DrHCN4L MO (45 ± 2 bpm, p = 0.092) compared to the heart rate in embryos injected with control MO (54 ± 1 bpm). […] After 48 h, heart rate was considerably lower in all three groups compared to that in the control group (135 ± 4 bpm): DrHCN4 MO (110 ± 3 bpm, p < 0.001), DrHCN4L MO (111 ± 1 bpm, p = 0.001), and mixture of DrHCN4 MO and DrHCN4L MO (116 ± 7 bpm, p = 0.014). However, at 72 h after MO injection, heart rate in all three groups had returned to the same level as that in the control group (145 ± 5 bpm): DrHCN4 MO (136 ± 3 bpm, p = 0.509), DrHCN4L MO (141 ± 5 bpm, p = 0.921), and mixture of DrHCN4 MO and DrHCN4L MO (147 ± 7 bpm, p = 0.991) (Figure 6B and Table 6).
(§2) FIGURE 6 Effects of HCN4 channel knockdown on zebrafish. (A) Expression of DrHCN4 and DrHCN4L in one (1), three (3), and seven (7) day embryos/larvae as well as in the heart (H) and brain (B) of adult fish was confirmed by RT-PCR. Arrows indicate the DNA ladder markers of 1,000 bp and 500 bp. (B) Heart rates at 24, 48, and 72 h are shown in bar graphs for 200 μM MO-injected zebrafish embryos: control MO (n = 20), DrHCN4 MO (n = 10), DrHCN4L MO (n = 10), and mixed DrHCN4 and DrHCN4L MO (n = 10). Statistical analysis was performed by Dunnett’s test. (C) Representative examples of zebrafish injected with control MO, DrHCN4 MO, DrHCN4L MO, and mixed DrHCN4 and DrHCN4L MO. […] Bar, 200 μm. (D) Ratios of normal embryos, pericardial edema, and death at 48 h after injection of 200 µM MO: control MO (n = 136), DrHCN4 MO (n = 75), DrHCN4L MO (n = 34), and mixed DrHCN4 and DrHCN4L MO (n = 30). (E) Pericardial edema and death ratios at 72 h after injection of 200 µM MO. Control MO (n = 136), DrHCN4 MO (n = 75), DrHCN4L MO (n = 34), and mixed DrHCN4 and DrHCN4L MO (n = 30).

[2] = test system: zebrafish embryos; experiment: Incidence of pericardial edema in MO-injected zebrafish embryos; format: in vivo, zebrafish (Danio rerio); settings: embryos surviving first 24 h
Procedure: as §1, §2
Pericardial edema is often observed in embryonic zebrafish with heart failure ([Narumanchi et al., 2021]). We determined the incidence of edema in zebrafish injected with 200 μM MO. We only examined zebrafish embryos that survived for the first 24 h after MO injection, and the rates of edema occurrence were determined at 48 and 72 h after injection. […] After 72 h, the proportions of embryos with edema increased to 79, 94, and 87% (Figure 6E).

[3] = test system: developing zebrafish embryos; experiment: Antisense morpholino knockdown: heart rate of zebrafish embryos; format: in vivo, zebrafish (Danio rerio); settings: Supplementary Figure S2, 52 hpf
[4] = test system: adult zebrafish; design: method as in Marchant and Farrell, 2019; settings: intraperitoneal injection, depending on test temperatures, ref Marchant and Farrell, 2019; cited from earlier work
[5] = 48 h after injection of 200 μM MO
[6] = 72 h after injection of 200 μM MO

Row | Molecule | Heart rate ([1]; 24 h after MO injection) [bpm] | Heart rate ([1]; 48 h after MO injection) [bpm] | Heart rate ([1]; 72 h after MO injection) [bpm] | Embryos showing pericardial edema [2, 5] [%] | Embryos showing pericardial edema [2, 6] [%] | Effect of injection on heart rate [3] | Reduction of maximum heart rate [4]
1 | 5′-GTAATTACTGCCACCGTGCACCACA-3′ (all phosphorodiamidate morpholino (PMO)) [DrHCN4 MO, Morpholino antisense oligo against DrHCN4 (Gene Tools)] | 44 ± 2 | 110 ± 3 | 136 ± 3 | 59 | 79 | – | –
2 | 5′-CCTCTTACCTCAGTTACAATTTATA -3′ [Control MO] | 54 ± 1 | 135 ± 4 | 145 ± 5 | – | – | did not affect heart rate | –
3 | COc1ccc(CCN(C)CCCN2CCc3cc(OC)c(OC)cc3CC2=O)cc1OC [zatebradine] | – | – | – | – | – | – | 38–65%
4 | 5′-GGCGACGCTGGCTGAAAAATAGGTC -3′ (all phosphorodiamidate morpholino (PMO)) [DrHCN4L MO, Morpholino antisense oligo against DrHCN4L (Gene Tools)] | 45 ± 2 | 111 ± 1 | 141 ± 5 | 62 | 94 | – | –
